Experimental data reported in the NIST ThermoML archive (doi:10.1016/j.fluid.2014.04.002).

Experiment: xn = mol fraction of the nth substance listed
Details: 101 kPa, Liquid; for viscosity: Concentric cylinders viscometry; for mass density: Vibrating tube method

CCOC(=O)C(C)O (stereo not drawn) [DL-ethyl lactate] + C1CCOC1
Details | mass density, 308.15 K [kg/m3] | mass density, 313.15 K [kg/m3] | mass density, 318.15 K [kg/m3] | mass density, 323.15 K [kg/m3] | viscosity, 308.15 K [mPa·s] | viscosity, 313.15 K [mPa·s] | viscosity, 318.15 K [mPa·s] | viscosity, 323.15 K [mPa·s]
x1 = 0.1002 | 891.857 | 886.313 | 880.728 | 875.1 | 0.5111 | 0.4852 | 0.4556 | 0.4242
x1 = 0.2001 | 910.441 | 904.918 | 899.348 | 893.744 | 0.6006 | 0.5661 | 0.5305 | 0.5003
x1 = 0.3001 | 927.416 | 921.903 | 916.356 | 910.77 | 0.7023 | 0.659 | 0.6187 | 0.5839
x1 = 0.4001 | 943.254 | 937.749 | 932.209 | 926.634 | 0.8122 | 0.7575 | 0.7066 | 0.6648
x1 = 0.4999 | 957.89 | 952.388 | 946.847 | 941.277 | 0.9381 | 0.8692 | 0.8068 | 0.755
x1 = 0.5999 | 971.596 | 966.093 | 960.559 | 954.994 | 1.084 | 0.9979 | 0.92 | 0.8565
x1 = 0.6999 | 984.431 | 978.93 | 973.398 | 967.835 | 1.255 | 1.146 | 1.052 | 0.9727
x1 = 0.7999 | 996.411 | 990.912 | 985.384 | 979.827 | 1.449 | 1.313 | 1.196 | 1.103
x1 = 0.8997 | 1007.43 | 1001.93 | 996.4 | 990.842 | 1.657 | 1.489 | 1.348 | 1.235
x1 = 1 | 1017.42 | 1011.9 | 1006.36 | 1000.79 | 1.858 | 1.658 | 1.491 | 1.349
